Laboratory results as given in patent publication US9505744B2, “Solid state forms of vilazodone and vilazodone hydrochloride” (Assia Chemical Industries Ltd., priority 2011, dated 2016).
Where a name gives a salt, the structure may show the parent alone.

Assays:
Format in all cases: physicochemical
[1] = Chemical and polymorphic stability on exposure to heating and mechanical pressure; conditions: when exposed to heating and to mechanical pressure; hydrochloride
[2] = Compressibility: pressing samples with 1 ton for 60 minutes; conditions: for appearance of palettes after pressing: pressed with 1 ton for 60 minutes
Wettability = experiment: Wettability
[3] = Hausner ratio (tapped density / poured (bulk) density)
Description: These properties enable improve tablet density uniformity, weight variation, homogeneity, die fill characteristics, dimensional control and ejection characteristics.

[4] = Polymorphic stability on exposure to humidity; conditions: 100% relative humidity for at least a few moths
Description: Form Lambda doesn't convert to another polymorph when exposed to humidity.

Row | SMILES | chemical and polymorphic stability [1] | compressibility ([2]; API pressed into a palette) | appearance of palettes after pressing [2] | degree of wettability (Wettability) | Hausner ratio (ratio between tapped density and poured (bulk) density) [3] | conversion to another polymorph when exposed to humidity [4]
1 | N#Cc1ccc2[nH]cc(CCCCN3CCN(c4ccc5oc(C(N)=O)cc5c4)CC3)c2c1 [Form Alpha, Vilazodone hydrochloride] | chemically and polymorphically stable | excellent compressibility | high structural order and shape without visible lamination on the surface or breaking of the palettes | enhanced degree of wettability |  | 
2 | N#Cc1ccc2[nH]cc(CCCCN3CCN(c4ccc5oc(C(N)=O)cc5c4)CC3)c2c1 [Form Lambda, Vilazodone hydrochloride] |  |  |  |  | favorable Hausner ratio | remains unchanged
3 | N#Cc1ccc2[nH]cc(CCCCN3CCN(c4ccc5oc(C(N)=O)cc5c4)CC3)c2c1 [Form Mu, Vilazodone hydrochloride] | high chemical and polymorphic stability |  | high structural order and shape without visible lamination on the surface or breaking of the palettes |  |  | 
